Data: patent publication US20040034021A1, “Intravenous rifalazil formulation and methods of use thereof” (priority 2002, published 2004)
≈ marks a conversion by molar mass, not a printed value.

Key:
[1] = test system: S. aureus; test: MIC by broth microdilution method; format: cell-based; settings: Staphylococcus aureus, CAMH broth, vehicle as in Example 2, 35-37° C., 20-24 hours
Protocol: The MIC (minimum inhibitory concentration) of rifalazil against S. aureus was determined by the broth microdilution method. A vehicle prepared as described in Example 2 was diluted in Cation Adjusted Mueller-Hinton (CAMH) broth to create working solutions that were 4× the maximum concentration to be tested on each microtiter plate. The 4× working solutions were added to the wells of the 96 well microtiter plate and serially diluted two-fold across 11 wells into CAMH.
To prepare the test strain inoculum, 3-5 colonies of S. aureus from a pure 18-24 hour culture grown on a primary agar plate were emulsified into demineralized water and adjusted to a 0.5 McFarland turbidity standard using a calibrated nephelometer. This suspension was then diluted further (1:100) into CAMH broth to yield an inoculum suspension containing approximately 10^6 CFU/ml. Aliquots of the inoculum suspension were added to the rifalazil-containing wells to yield a final concentration in the well of 1-8×10^5 CFU/ml. The microtiter plates were incubated at 35-37° C. for 20-24 hours. The MIC was read as the lowest concentration of the compound that inhibits visible growth.

[2] = solubility of rifalazil in aqueous test solutions (UV-Vis); format: physicochemical
Protocol: In order to determine its solubility, to a vial containing solid rifalazil was added a volume of aqueous test solution. The vial was capped and sonicated for about an hour and the remaining undissolved solids were left to settle overnight. The vial was then vortexed for 1 minute, sonicated for another 30 minutes, and centrifuged for 1 hour at 3500 RPM. The supernatent was separated from undissolved rifalazil. The concentration of rifalazil in the test solution was determined by UV-Vis absorbance using a suitable spectrophotometer. Using this method, the solubility of rifalazil was determined as a function of pH (see FIG. 1); in PEG 400-water, propylene glycol-water, and ethanol-water mixtures (see FIG. 2); in Tween-40-water and Tween-80-water mixtures (see FIG. 3); in dodecyltrimethylammonium bromide-water, sodium chenodeoxycholate-water, sodium Octylsulfate-water, sodium deoxycholate-water, sodium cholate-water, and sodium dodecylsulfate-water mixtures (see FIG. 4); in sodium dodecylsulfate- water mixtures at pH 5.4 and 7.4 (see FIG. 5); and in PEG-35 castor oil-water mixtures (see FIG. 6).

[3] = stability against hydrolytic degradation to des-acetyl rifalazil (HPLC); format: physicochemical
Protocol: Rifalazil solutions containing the micelle-forming excipient PEG-35 castor oil, prepared as described in Example 2, and without a micelle-forming excipient (15% ethanol, phosphate buffer pH=7.6, 0.9% NaCl) were monitored for stability against the hydrolytic degradation of rifalazil at temperatures of 25° C., 40° C., 50° C., and 60° C. (see FIGS. 7 and 8). The degradation was monitored for several days by HPLC for the disappearance of rifalazil or the appearance of des-acetyl rifalazil, the degradation product that results from the hydrolysis of rifalazil.

SMILES: CO[C@H]1/C=C/O[C@@]2(C)Oc3c(C)c(O)c4c(=O)c(c5oc6cc(N7CCN(CC(C)C)CC7)cc(O)c6nc-5c4c3C2=O)NC(=O)/C(C)=C\C=C\[C@H](C)[C@H](O)[C@@H](C)[C@@H](O)[C@@H](C)[C@H](OC(C)=O)[C@@H]1C [Rifalazil, rifalazil]
- MIC [1]: 0.015 µg/mL (≈ 0.0159 µM)
- ratio of 100 μg/mL (typical low IV dosage concentration) to solubility of the drug in water ([2]; water at pH 7 (FIG. 1)): 5,000 times
- solubility in water ([2]; water at physiological pH): virtually insoluble
- effect of micelle-forming excipient on hydrolytic degradation of rifalazil ([3]; PEG-35 castor oil solution of Example 2 vs 15% ethanol, phosphate buffer pH 7.6, 0.9% NaCl, 25-60° C. (FIGS. 7 and 8)): inhibits the hydrolytic degradation
- hydrolytic degradation of rifalazil ([3]; aqueous environments under ambient conditions, no micelle-forming excipient (FIG. 8)): occurs readily
